Measurements published in PubChem BioAssay (NCI).
“And” between values parts separate entries of the source, which are not always exact repeats. Identical values can stand only once.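 Following 48 hours of exposure in 96-well plates, responses at five concentrations were used to interpolate endpoints linearly. At the GI50, growth is halved. TGI is the concentration that stops growth completely.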

How the values were obtained:
Assay in all cases: NCI-60 cell line screen, 48 h
[1] = system: A498 renal
[2] = system: RXF 393 renal
[3] = system: K-562 leukemia
[4] = system: SNB-75 CNS
[5] = system: MDA-MB-435
[6] = system: HT29 colon
[7] = system: OVCAR-5 ovarian
[8] = system: CAKI-1 renal
[9] = system: TK-10 renal
[10] = system: NCI-H23 lung

SMILES	GI50 [1]	TGI [1]	GI50 [2] [µM]	TGI [2] [µM]	GI50 [3]	TGI [3] [µM]	GI50 [4] [µM]	TGI [4] [µM]	GI50 [5] [µM]	TGI [5]	GI50 [6]	TGI [6] [µM]	GI50 [7] [µM]	TGI [7] [µM]	GI50 [8] [µM]	TGI [8] [µM]	GI50 [9] [µM]	TGI [9] [µM]	GI50 [10]	TGI [10] [µM]
O=c1oc2ccc(Br)cc2c(=O)n1-c1ccc(Cl)cc1F	0.194 µM	0.772 µM	1.05	4.47	0.646 µM	> 100	0.572	2.8	1.35	6.23 µM	3.35 µM	> 34	3.84	> 100	0.821	4.37	4.19	18.9	1.03 µM	4.77
COc1cc2nc3cc([N+](=O)[O-])ccc3c(NCCNCC(C)O)c2cc1OC (stereo not drawn)	1.37 µM	3.02 µM	0.641	2.34			0.675	2.07	0.572	1.98 µM	0.317 µM	1.28	2.61	9.41	2.5	10.9	1.72	5.71	0.554 µM	3.07
CNC(=O)c1cccc(C#Cc2cncnc2Nc2ccc(OCc3cccc(F)c3)c(Cl)c2)c1	1.84 µM	10.9 µM	2.91	11.7	9.7 µM	> 25	5.26	14.4	7.02	> 25 µM	8.64 µM	> 25	7.34	> 25	2.09	> 25	1.46	9.03	7.5 µM	24.2
N#CC1=C(N)Oc2c(sc3c(Br)cccc23)C1c1ccc(Cl)cc1 (stereo not drawn)	0.47 µM	11 µM	0.553	3.01	0.322 µM	3.54	0.478	9.41	0.277	1.01 µM	0.711 µM	2.85	1.91	5.98	0.477	16.3	3.47	12.8	0.821 µM	4.86
COC(=O)[C@@H](C)C[C@H](Cc1ccccc1)NC(=O)c1csc([C@@H](C[C@H](C(C)C)N(C)C(=O)[C@@H](NC(=O)[C@H]2CCCN2C)C2CC2)OC(C)=O)n1	0.00147 µM and < 0.0025 µM	0.00817 µM and < 0.0025 µM	0.0025	> 25	0.000352 µM and 0.0025 µM	> 25	0.0025	> 25	< 0.0025	0.00049 µM and < 0.0025 µM	0.000503 µM and 0.0025 µM	> 25		> 25				> 25	0.00365 µM and 0.0025 µM	> 25
O=S(=O)(NCCCNc1cc(-c2cn(-c3ccccc3)nc2-c2cccc(O)c2)ccn1)c1ccc(Br)cc1	0.386 µM	2.89 µM	1.09	3.5	0.444 µM	2.89	1.22	7.81	1.7	3.53 µM	0.639 µM	2.35	2.12	5.55	2.25	12.6	3.35	10.2	2.19 µM	12.1
O=C1c2c(Cl)c(Cl)c(Cl)c(Cl)c2C(=O)C2(Cl)CC=CCC12Cl (stereo not drawn)	12.7 µM	25.3 µM	1.63	3.01	1.09 µM	3.59	1.84	3.34	2.06	4.32 µM			2.51	5.74	1.93	3.68	2.06	3.57	1.84 µM	3.94
O=C(c1ccccc1)c1nc2ccc(C(F)(F)F)cc2nc1N1CCN(c2ccccc2)CC1	27.9 µM	68.6 µM	35.5	> 100					35.6	> 100 µM			70.5	> 100	26.2	74.7	30.7	74.7	25.7 µM	69.5
Cc1sc2c(c1C)C(c1ccc(Cl)cc1)=N[C@@H](CC(=O)NCCCN1CCN(C)CC1)c1nnc(C)n1-2	0.271 µM	7.78 µM	2.08	> 100	0.299 µM	> 100	< 0.0106	0.16	0.621	> 100 µM	0.198 µM	> 100	1.99	> 100	0.684	> 100			5.67 µM	> 100
C=C1C(=O)C2=CC1CCC(=O)C1(C)CCC(OC(C)=O)C(C)(C)C1CC2O (stereo not drawn)		12.6 µM		6.31				24.8		26 µM		10.1		18.9		6.2		26.5		8.62
Nc1ncn([C@H]2C[C@H](OP(=O)(O)OC[C@H]3O[C@@H](n4cnc5c(=O)[nH]c(N)nc54)C[C@@H]3O)[C@@H](CO)O2)c(=O)n1	> 100 µM	> 100 µM	12.2	> 100			> 100	> 100	> 100	> 100 µM	47.1 µM	> 100	> 100	> 100	> 100	> 100	> 100	> 100	> 100 µM	> 100
NC(N)=N/N=C/c1c(-c2cccnc2)nc2sc(Cl)cn12	20.6 µM	37.6 µM	17.2	36.7	19.1 µM	43.3			16.6	30.5 µM			12.7	25.3	20.5	43.4	15.4	29.3	16.1 µM	31.7
C=CC(=O)Nc1cccc(Oc2nc(Nc3ccc(N4CCN(C)CC4)cc3OC)ncc2Cl)c1	1.11 µM	3.49 µM	1.49	3.12			1.52	3.98	1.7	3.24 µM	2.08 µM	4.53	2.29	13	0.985	2.44	0.513	1.86	3.92 µM	23.7
COc1cc(CCNC(=O)OC(C)(C)C)c2c(c1OC)SSSSS2	1.6 µM	3.09 µM			2.45 µM	21.3	2.27	4.56	2.28	4.78 µM	1.86 µM	4.02	3.14	9.23	2.17	4.28	2.63	5.5	3.56 µM	20.3
